Data: PubChem BioAssay (NCI)
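Interpolation was linear, between the two tested concentrations surrounding the appropriate level; five concentrations were tested over 48 hours in 96-well plates. Here, GI50 denotes the concentration required for 50% inhibition of growth. TGI: concentration producing complete growth inhibition.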

Legend:
Assay in all cases: growth of human tumour cells (NCI), 48 h
K-562 leukemia = system: K-562 leukemia
NCI-H522 lung = system: NCI-H522 lung
MOLT-4 leukemia = system: MOLT-4 leukemia
OVCAR-5 ovarian = system: OVCAR-5 ovarian
NCI-H226 lung = system: NCI-H226 lung
HL-60(TB) leukemia = system: HL-60(TB) leukemia
OVCAR-4 ovarian = system: OVCAR-4 ovarian
SR leukemia = system: SR leukemia
MCF7 breast = system: MCF7 breast
OVCAR-8 ovarian = system: OVCAR-8 ovarian

Structure (SMILES)	GI50 (K-562 leukemia) [µM]	TGI (K-562 leukemia) [µM]	GI50 (NCI-H522 lung) [µM]	TGI (NCI-H522 lung) [µM]	GI50 (MOLT-4 leukemia) [µM]	TGI (MOLT-4 leukemia) [µM]	GI50 (OVCAR-5 ovarian) [µM]	TGI (OVCAR-5 ovarian) [µM]	GI50 (NCI-H226 lung) [µM]	TGI (NCI-H226 lung) [µM]	GI50 (HL-60(TB) leukemia) [µM]	TGI (HL-60(TB) leukemia) [µM]	GI50 (OVCAR-4 ovarian) [nM]	TGI (OVCAR-4 ovarian) [µM]	GI50 (SR leukemia) [µM]	TGI (SR leukemia) [µM]	GI50 (MCF7 breast) [nM]	TGI (MCF7 breast) [µM]	GI50 (OVCAR-8 ovarian) [µM]	TGI (OVCAR-8 ovarian) [µM]
CC/C(=C(/c1ccc(OCCN(C)C)cc1)c1ccc(OC(=O)CCCCC(=O)c2c(C)[nH]c(/C=C3\N=C(c4ccc[nH]4)C=C3OC)c2C)cc1)c1ccccc1	3.16	12.6	3.59	14.3	1.73	24.8	10.6	22.5	14.2	34.3	18	41.9	4390	22.3	3.05	21	54.4	1.2	6.55	19.9
O=C(Nc1ccc(OS(=O)(=O)c2ccccc2)cc1)C12CC3CC(CC(C3)C1)C2	0.576	> 100	4.36	> 100	5.05	> 100	> 100	> 100	27.7	> 100	2.68	> 100	8380	> 100	3.6	> 100	3260	> 100	> 100	> 100
C[As](C)SC1OC(CO)C(O)C1O (stereo not given)	0.131	2.03	0.167	0.477	0.174	0.957	0.864	5.33	1.18	5.21	0.454		1690	16.3	0.213	3.13	324	1.3	0.694	3.15
CCOc1nc(-c2ccccc2)cc2c(O)c(-c3nnco3)[nH]c(=O)c12	4.83	> 100	3.09	> 100	4.9	> 100	> 82.3	> 100	6.25	> 100	5.86	> 100			3.85	> 100	507	> 100	4.24	> 100
COc1ccc(C(=O)c2cc(OC)c(C)c(OC)c2)cc1OC(=O)CCl	0.0538	> 100	0.21	14.1	0.145	18	4.37	> 100	8	> 30.6	0.066	0.193	1220	> 100	0.0305	13.2	361	> 100	0.507	> 100
CC(C)=C[C@@H]1C[C@H](C)[C@H]2CC[C@H](C)C3=C2[C@](O)(OC3=O)[C@]1(C)O	> 100	> 100	> 100	> 100	> 100	> 100	> 100	> 100	> 100	> 100	> 100	> 100	> 100000	> 100	> 100	> 100	71500	> 100	> 100	> 100
CC(C)(C)C(=O)OCOP(=O)(OCOC(=O)C(C)(C)C)C1CCCN(O)C1=O (stereo not given)	0.393	> 100	0.308	1.83	0.431	2.69	2.01	62.7	0.996	9.62	0.538	3.53	508	59.7	0.433	7.87	338	3.86	0.305	8.91
CC(SC(C)C(=O)N/N=C/c1cccc(Cl)c1)C(=O)N/N=C\c1cccc(Cl)c1 (stereo not given)	31.6	> 100	3.57	11.6	11.2	42	17.4	44.2	17.5	43.1	6.24	> 100	1630	3.35	3.53	11.1	5160	18.6	4.78	23.2
Oc1ccc(Cl)cc1Cc1cc(Cl)cc(Cl)c1O	4.52	28.4	3.43	13.2	5.52	32.1	11.3	26.6	12.7	37.2	4.64	28.6	3480	23.3	5.02	27.4	3510	20.3	12.8	76.4
O=c1c2ccccc2[se]n1-c1cccnc1		> 100		55.4		> 100		> 100		> 100		91.5		> 100		> 100		80.6		69.5
C=C(F)C(=O)N1CCN(c2nc(OC[C@@H]3CCCN3C)nc3c2CCN(c2cccc4cccc(Cl)c24)C3)C[C@@H]1CC#N	0.421	1.84	0.441	1.73	0.573	2.71	0.485	2.56			0.86	2.5	994	3.3	0.657	2.6	1050	2.96	0.473	1.79
CC(=O)OC1Oc2ccccc2-c2oc(=O)c(-c3cc(=O)oc4cc(O)ccc34)cc21 (stereo not given)	9.45	> 100	16.9	43	4.33	20.1	26.6	57.2	27.1	67.3	21.8	> 100	25000	> 100	2.65	6.5	29900	> 100	19.8	> 100
